This assay has as its system ddc-GAL4;G2019S-2 flies. In words: Climbing assay (negative geotaxis) of LRRK2-G2019S transgenic flies treated with L-DOPA. Type of assay: in vivo, Drosophila melanogaster. Conditions: 5 weeks of age, 1 mM L-DOPA for 10 days, P<0.05 vs untreated (FIG. 2E). An excerpt:
We determined locomotor ability using a climbing assay (negative geotaxis assay) as described previously (23). Cohorts of 60 flies from each genotype were subjected to the assay weekly from 1 week to the time of death. The tested flies were age-matched, randomly selected, anesthetized, and placed in a vertical plastic column (length, 25 cm; diameter, 1.5 cm). After a 30-min recovery from CO2 exposure, flies were gently tapped to the bottom of the column. We counted and calculated the percentage of flies that could climb to or above the median line of the cylinder in 10 seconds. Each week, the assay was repeated three times.

Take `N[C@@H](Cc1ccc(O)c(O)c1)C(=O)O` [L-DOPA]: the “locomotor activity (climbing assay)” value was “significantly improved”.

Source of the values: patent US20100175140A1, “Leucine-rich repeat kinase (LRRK2) drosophila model for parkinson's disease: wildtype1 (WT1) and G2019S mutant flies” (The Johns Hopkins University, priority 2008, published 2010).
